# Data taken from patent publication US12605471B2 (The General Hospital Corporation, priority 2013, dated 2026).
# Key:
# Aβ fibril = settings: cited from earlier work
# [1] = Biodistribution of F-18 cromolyn in normal mice after intravenous injection; format: in vivo; settings: i.v. tail vein
# [2] = as above; format: in vivo; settings: for Tissue Distribution, blood / Tissue Distribution, brain / Tissue Distribution, heart / Tissue Distribution, liver / Tissue Distribution, lung: normal mice, i.v. tail vein
# Experimental: At 5 min, organ activity (DPG) was: heart: 1.09%, blood: 3.3%, lung: 1.90%, liver: 7.69%, and brain: 0.15%. […] The data is provided in Table 1 below and in bar graph format in FIG. 4.
# atherosclerotic plaque = settings: mice; cited from earlier work
# interleukin-6 (IL-6) = settings: mice, stress-related coronary inflammation; cited from earlier work
# [3] = human, oral inhalation, high inspiratory rates; cited from earlier work
# Aβ peptide = Aβ peptide (Homo sapiens, UniProt P05067); assay: Aβ aggregation by thioflavin T assay; format: biochemical
# Experimental: One of the most routinely used approaches to monitor Aβ polymerization is the thioflavin T binding assay. […] Aβ peptide at 5 μM was mixed with 10 μM thioflavin T with drug at different concentrations.
# Aβ (1-40) peptides = Aβ (1-40) peptides (Homo sapiens, UniProt P05067); assay: UV aggregation assay; format: biochemical
# Experimental: Aβ peptide aggregation and the impact of drugs to slow or prevent Aβ aggregation was measured by a UV absorbance assay (Findeis, 1999). Aβ (1-40) peptides, at 50 μM, were mixed with 50 μM drug in assay buffer and the plate was incubated at ambient temperature on a plate reader. The UV absorbance was monitored at 540 nm over a 2-3 h period.
# Polymerization of Aβ-monomer peptides into clusters of trimers and tetramers initiates the Aβ aggregation process into protofibrils and then into fibrils that form amyloid plaques.
# [4] = Brain concentration of PIB analog TS3124; settings: in vivo
# Chain of Aβ (1-40) peptides (P05067 672-711 limits assumed): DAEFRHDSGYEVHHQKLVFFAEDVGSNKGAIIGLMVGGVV
# Chain of Aβ peptide (P05067 672-711 limits assumed): as above
compound,measurement,setting,value
O=c1cc(-c2ccccc2)oc2cc(O)cc(O)c12 [Chrysin],Effects on Aβ fibril formation,Aβ fibril,Enhancing
Fisetin,Effects on Aβ fibril formation,Aβ fibril,Inhibitory
O=c1c(O)c(-c2ccc(O)cc2)oc2cc(O)ccc12 [5-Deoxykaempferol],Effects on Aβ fibril formation,Aβ fibril,Enhancing
"O=c1c(O)c(-c2cccc(O)c2)oc2cc(O)ccc12 [3,3′,7-Trihydroxyflavone]",Effects on Aβ fibril formation,Aβ fibril,Enhancing
O=c1c(O)c(-c2cc(O)c(O)c(O)c2)oc2cc(O)cc(O)c12 [Myricetin],Effects on Aβ fibril formation,Aβ fibril,Inhibitory
O=c1cc(-c2ccc(O)c(O)c2)oc2cc(O)cc(O)c12 [Luteolin],Effects on Aβ fibril formation,Aβ fibril,Inhibitory
O=c1c(O)c(-c2ccc(O)c(O)c2)oc2cc(O)cc(O)c12 [Quercetin],Effects on Aβ fibril formation,Aβ fibril,Inhibitory
"O=C(O)c1cc(=O)c2c(OCC([18F])COc3cccc4oc(C(=O)O)cc(=O)c34)cccc2o1 [F-18 Cromolyn, 5,5′-(2-[18F]fluoropropane-1,3-diyl)bis(oxy)bis(4-oxo-4H-chromene-2-carboxylic acid)]","Tissue Distribution, liver",[1]; 30 min,3.11 ± 0.36 % Dose/gram
same,"Tissue Distribution, lung",[1]; 30 min,0.62 ± 0.19 % Dose/gram
same,"Tissue Distribution, brain",[1]; 60 min,0.03 ± 0.004 % Dose/gram
same,"Tissue Distribution, heart",[1]; 60 min,0.18 % Dose/gram
same,"Tissue Distribution, lung",[1]; 60 min,0.29 ± 0.21 % Dose/gram
same,brain uptake (accumulation),"[2]; mice, intravenous injection, 5, 30 or 60 minute, little or no washout, FIG. 4",1%
same,"Tissue Distribution, blood",[2]; 5 min,3.31 ± 1.37 % Dose/gram
same,"Tissue Distribution, brain",[2]; 5 min,0.15 ± 0.37 % Dose/gram
same,"Tissue Distribution, heart",[2]; 5 min,1.09 ± 0.13 % Dose/gram
same,"Tissue Distribution, liver",[2]; 5 min,7.69 ± 0.41 % Dose/gram
same,"Tissue Distribution, lung",[2]; 5 min,1.90 ± 1.04 % Dose/gram
same,"Tissue Distribution, blood","[2]; 5 min, listed as F-18 cromolyn",3.3 % Dose/gram
same,"Tissue Distribution, brain","[2]; 5 min, listed as F-18 cromolyn",0.15 % Dose/gram
same,"Tissue Distribution, heart","[2]; 5 min, listed as F-18 cromolyn",1.09 % Dose/gram
same,"Tissue Distribution, liver","[2]; 5 min, listed as F-18 cromolyn",7.69 % Dose/gram
same,"Tissue Distribution, lung","[2]; 5 min, listed as F-18 cromolyn",1.90 % Dose/gram
same,"Tissue Distribution, blood",[2]; 30 min,0.92 ± 0.20 % Dose/gram
same,"Tissue Distribution, brain",[2]; 30 min,0.04 ± 0.007 % Dose/gram
same,"Tissue Distribution, heart",[2]; 30 min,0.32 ± 0.03 % Dose/gram
same,"Tissue Distribution, blood",[2]; 60 min,0.44 ± 0.15 % Dose/gram
same,"Tissue Distribution, heart",[2]; 60 min,0.18 ± 0.07 % Dose/gram
same,"Tissue Distribution, liver",[2]; 60 min,1.76 ± 0.74 % Dose/gram
"O=C([O-])c1cc(=O)c2c(OCC(O)COc3cccc4oc(C(=O)[O-])cc(=O)c34)cccc2o1.[Na+].[Na+] [cromolyn sodium, Disodium cromoglicate]",dinitrophenyl-albumin-induced plaque expansion,atherosclerotic plaque,prevented
same,release of interleukin-6 (IL-6),interleukin-6 (IL-6),partially inhibited
same,inhaled drug-delivered-dose absorbed into the bloodstream,[3],10-15%
same,Aβ aggregation (thioflavin T fluorescence),"Aβ peptide; Aβ peptide 5 μM, 10 μM thioflavin T, drug at nanomolar concentration, FIG. 6",inhibition of Aβ aggregation
same,Aβ amyloid peptide polymerization into oligomers and higher order aggregates,"Aβ peptide; four separate in vitro assays, nanomolar concentrations",effectively inhibits
same,incubation time required for 50% polymerization,"Aβ (1-40) peptides; Aβ 50 μM, equimolar drug, 14 minutes in the absence of drug",75 min
same,inhibition of the rate of Aβ polymerization,Aβ (1-40) peptides; equimolar concentrations with Aβ,7 fold
CC(F)CNc1ccc(-c2nc3ccc(O)cc3s2)cc1 (stereo not shown) [TS3124],brain concentration,[4],4%
"O=c1cc(-c2ccc(O)c(O)c2)oc2cc(O)ccc12 [3′,4′,7-Trihydroxyflavone]",Effects on Aβ fibril formation,Aβ fibril,Inhibitory
O=c1c(O)c(-c2ccc(O)cc2)oc2cc(O)cc(O)c12 [Kaempferol],Effects on Aβ fibril formation,Aβ fibril,Enhancing
"O=c1c(O)c(-c2ccc(O)c(O)c2)oc2ccccc12 [3,3′,4′-Trihydroxyflavone]",Effects on Aβ fibril formation,Aβ fibril,Inhibitory
